Experimental data from ChEMBL document CHEMBL4334526, “Synthesis of Peptoid-Based Class I-Selective Histone Deacetylase Inhibitors with Chemosensitizing Properties” (J Med Chem, 2019).
Each block holds one molecule with its values, some of them ahead of it. Calls of active or inactive are those of the source. No cut-off for these calls is given here.

Experiments:
Histone deacetylase 2 = Histone deacetylase 2 (Homo sapiens, UniProt Q92769); assay: Inhibition of recombinant human full length C-terminal FLAG-tagged HDAC2 expressed in baculovirus infected Sf9 insect cells at 3.33 uM using Boc-Lys(epsilon-acetyl)-AMC as substrate incubated for 90 mins by fluorescence assay relative to control
A2780 = assay: Cytotoxicity against human A2780 cells assessed as reduction in cell survival up to 100 uM measured after 72 hrs by MTT assay; type: functional, cell-based
[1] = molecular target: T1, Class 1 histone deacetylase (Homo sapiens, UniProt Q13547+O15379+Q92769+Q9BY41); assay: Inhibition of class 1 HDAC in human CAL27 cells assessed as potentiation of cisplatin-induced cytotoxicity by measuring fold reduction in cisplatin IC50 at […] preincubated for 48 hrs followed by cisplatin addition and measured after 72 hrs by MTT assay relative to cisplatin IC50; type: cell-based; conditions: CAL-27
CAL-27 [2] = assay: Induction of apoptosis in human CAL27 cells assessed as accumulation at sub-G1 phase at […] after 48 hrs by propidium iodide staining based flow cytometry relative to control; type: functional
[3] = Induction of apoptosis in human Cal27CisR cells assessed as accumulation at sub-G1 phase at […] after 48 hrs by propidium iodide staining based flow cytometry relative to control; type: functional
CAL-27 [4] = assay: Induction of apoptosis in human CAL27 cells assessed as caspase-3/7 activation at […] measured after 48 hrs by CellEvent caspase 3/7 green detection reagent/Hoechst 33342 staining based imaging analysis relative to control; type: functional
[5] = molecular target: T1, Class 1 histone deacetylase; assay: Inhibition of class 1 HDAC in human Cal27CisR cells assessed as potentiation of cisplatin-induced cytotoxicity by measuring cisplatin IC50 at […] preincubated for 48 hrs followed by cisplatin addition and measured after 72 hrs by MTT assay (reference value: 63.2 uM); type: cell-based
[6] = molecular target: T1, Class 1 histone deacetylase; assay: (§1) Inhibition of class 1 HDAC in human CAL27 cells assessed as potentiation of cisplatin-induced apoptosis assessed as increase in caspase-3/7 activation at […] preincubated for 48 hrs followed by cisplatin addition and measured after 24 hrs by CellEvent caspase 3/7 green detection reagent/Hoechst 33342 staining based imaging analysis; type: cell-based; conditions: CAL-27
[7] = molecular target: T1, Class 1 histone deacetylase; assay: as §1, with “Cal27CisR” for “CAL27”; type: cell-based
CAL-27 [8] = assay: Potency index, ratio of vorinostat IC50 to test compound IC50 for cytotoxicity against human CAL27 cells; type: functional
CAL-27 [9] = assay: Induction of apoptosis in human CAL27 cells assessed as accumulation at sub-G1 phase at 0.5 uM after 48 hrs by propidium iodide staining based flow cytometry relative to control; type: functional
[10] = Induction of apoptosis in human Cal27CisR cells assessed as accumulation at sub-G1 phase at 0.5 uM after 48 hrs by propidium iodide staining based flow cytometry relative to control; type: functional
[11] = molecular target: T1, Class 1 histone deacetylase; conditions: CAL-27
Description: Inhibition of class 1 HDAC in human CAL27 cells assessed as potentiation of cisplatin-induced cytotoxicity by measuring combination index at 0.25 uM in presence of 1 uM cisplatin by MTT assay based Chou-Talalay analysis

[12] = molecular target: T1, Class 1 histone deacetylase; conditions: CAL-27; remark: listed apart in the source
Description: Inhibition of class 1 HDAC in human CAL27 cells assessed as potentiation of cisplatin-induced cytotoxicity by measuring combination index at 0.25 uM in presence of 0.1 uM cisplatin by MTT assay based Chou-Talalay analysis

[13] = molecular target: T1, Class 1 histone deacetylase; conditions: CAL-27; remark: listed apart in the source
Description: Inhibition of class 1 HDAC in human CAL27 cells assessed as potentiation of cisplatin-induced cytotoxicity by measuring combination index at 0.1 uM in presence of 10 uM cisplatin by MTT assay based Chou-Talalay analysis

[14] = molecular target: T1, Class 1 histone deacetylase; conditions: CAL-27; remark: listed apart in the source
Description: Inhibition of class 1 HDAC in human CAL27 cells assessed as potentiation of cisplatin-induced cytotoxicity by measuring combination index at 0.1 uM in presence of 1 uM cisplatin by MTT assay based Chou-Talalay analysis

[15] = molecular target: T1, Class 1 histone deacetylase; conditions: CAL-27; remark: listed apart in the source
Description: Inhibition of class 1 HDAC in human CAL27 cells assessed as potentiation of cisplatin-induced cytotoxicity by measuring combination index at 0.25 uM in presence of 10 uM cisplatin by MTT assay based Chou-Talalay analysis

[16] = molecular target: T1, Class 1 histone deacetylase
Description: Inhibition of class 1 HDAC in human Cal27CisR cells assessed as potentiation of cisplatin-induced cytotoxicity by measuring combination index at 0.10 uM in presence of 1 uM cisplatin by MTT assay based Chou-Talalay analysis

[17] = molecular target: T1, Class 1 histone deacetylase; remark: listed apart in the source
Description: Inhibition of class 1 HDAC in human Cal27CisR cells assessed as potentiation of cisplatin-induced cytotoxicity by measuring combination index at 0.10 uM in presence of 3.2 uM cisplatin by MTT assay based Chou-Talalay analysis

[18] = molecular target: T1, Class 1 histone deacetylase; remark: listed apart in the source
Description: Inhibition of class 1 HDAC in human Cal27CisR cells assessed as potentiation of cisplatin-induced cytotoxicity by measuring combination index at 0.25 uM in presence of 10 uM cisplatin by MTT assay based Chou-Talalay analysis

[19] = molecular target: T1, Class 1 histone deacetylase; remark: listed apart in the source
[20] = molecular target: T1, Class 1 histone deacetylase; assay: Inhibition of class 1 HDAC in human CAL27 cells assessed as potentiation of cisplatin-induced cytotoxicity by measuring cisplatin IC50 at 5 uM preincubated for 48 hrs followed by cisplatin addition and measured after 72 hrs by MTT assay (reference value: 9.79 uM); type: cell-based; conditions: cal-27
[21] = molecular target: T1, Class 1 histone deacetylase; assay: Inhibition of class 1 HDAC in human CAL27 cells assessed as potentiation of cisplatin-induced cytotoxicity by measuring fold reduction in cisplatin IC50 at 5 uM preincubated for 48 hrs followed by cisplatin addition and measured after 72 hrs by MTT assay relative to cisplatin IC50; type: cell-based; conditions: CAL-27
[22] = molecular target: T1, Class 1 histone deacetylase; assay: Inhibition of class 1 HDAC in human CAL27 cells assessed as potentiation of cisplatin-induced cytotoxicity by measuring combination index at 5 uM in presence of 10 uM cisplatin by MTT assay based Chou-Talalay analysis; type: cell-based; conditions: CAL-27
[23] = molecular target: T1, Class 1 histone deacetylase; assay: Inhibition of class 1 HDAC in human CAL27 cells assessed as potentiation of cisplatin-induced cytotoxicity by measuring combination index at 5 uM in presence of 1 uM cisplatin by MTT assay based Chou-Talalay analysis; type: cell-based; conditions: CAL-27
[24] = molecular target: T1, Class 1 histone deacetylase; assay: Inhibition of class 1 HDAC in human CAL27 cells assessed as potentiation of cisplatin-induced cytotoxicity by measuring combination index at 5 uM in presence of […] cisplatin by MTT assay based Chou-Talalay analysis; type: cell-based; conditions: CAL-27
[25] = molecular target: T1, Class 1 histone deacetylase; assay: Inhibition of class 1 HDAC in human CAL27 cells assessed as potentiation of cisplatin-induced cytotoxicity by measuring combination index at 5 uM in presence of 0.1 uM cisplatin by MTT assay based Chou-Talalay analysis; type: cell-based; conditions: CAL-27
[26] = molecular target: T1, Class 1 histone deacetylase; assay: Inhibition of class 1 HDAC in human Cal27CisR cells assessed as potentiation of cisplatin-induced cytotoxicity by measuring combination index at 5 uM in presence of […] cisplatin by MTT assay based Chou-Talalay analysis; type: cell-based
[27] = molecular target: T1, Class 1 histone deacetylase; assay: Inhibition of class 1 HDAC in human Cal27CisR cells assessed as potentiation of cisplatin-induced apoptosis by measuring increase in accumulation at sub-G1 phase at 5 uM preincubated for 48 hrs followed by cisplatin addition and measured after 24 hrs by propidium iodide staining based flow cytometry; type: cell-based
[28] = molecular target: T1, Class 1 histone deacetylase; assay: Inhibition of class 1 HDAC in human Cal27CisR cells assessed as increase in histone H3 acetylation at 5 uM measured after 24 hrs by immunoblot analysis; type: cell-based
[29] = molecular target: T1, Class 1 histone deacetylase; assay: Inhibition of class 1 HDAC in human CAL27 cells assessed as potentiation of cisplatin-induced apoptosis assessed as increase in caspase-3/7 activation at 5 uM preincubated for 48 hrs followed by cisplatin addition and measured after 24 hrs by CellEvent caspase 3/7 green detection reagent/Hoechst 33342 staining based imaging analysis; type: cell-based; conditions: CAL-27

T1 sequence (O15379 whole entry, looked up): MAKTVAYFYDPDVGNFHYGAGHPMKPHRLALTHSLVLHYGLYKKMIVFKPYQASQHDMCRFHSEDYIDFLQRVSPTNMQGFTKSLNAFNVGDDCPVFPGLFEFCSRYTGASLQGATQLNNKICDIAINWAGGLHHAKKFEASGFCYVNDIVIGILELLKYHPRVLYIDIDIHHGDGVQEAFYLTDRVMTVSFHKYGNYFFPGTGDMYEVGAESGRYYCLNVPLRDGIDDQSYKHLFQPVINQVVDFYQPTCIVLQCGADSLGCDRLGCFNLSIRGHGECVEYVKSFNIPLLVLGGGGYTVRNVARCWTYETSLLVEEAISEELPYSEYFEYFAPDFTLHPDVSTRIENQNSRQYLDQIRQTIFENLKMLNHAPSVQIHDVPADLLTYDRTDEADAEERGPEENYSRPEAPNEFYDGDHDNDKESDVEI
T1 sequence (Q13547 whole entry, looked up): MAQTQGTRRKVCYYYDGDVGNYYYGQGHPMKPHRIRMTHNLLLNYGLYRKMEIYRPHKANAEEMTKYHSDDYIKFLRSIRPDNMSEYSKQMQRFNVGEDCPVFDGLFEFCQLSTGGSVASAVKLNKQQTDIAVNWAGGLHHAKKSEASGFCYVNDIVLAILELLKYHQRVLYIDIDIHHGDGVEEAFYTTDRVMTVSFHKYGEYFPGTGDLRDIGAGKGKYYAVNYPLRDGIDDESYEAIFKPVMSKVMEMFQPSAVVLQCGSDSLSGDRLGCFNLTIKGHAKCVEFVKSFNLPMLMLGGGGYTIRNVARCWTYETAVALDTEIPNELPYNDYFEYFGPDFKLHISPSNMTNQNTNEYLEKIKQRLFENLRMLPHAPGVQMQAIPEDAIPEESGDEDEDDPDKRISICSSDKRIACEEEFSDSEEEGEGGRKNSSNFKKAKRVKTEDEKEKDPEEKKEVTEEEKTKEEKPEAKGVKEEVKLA
T1 sequence (Q92769 whole entry, looked up): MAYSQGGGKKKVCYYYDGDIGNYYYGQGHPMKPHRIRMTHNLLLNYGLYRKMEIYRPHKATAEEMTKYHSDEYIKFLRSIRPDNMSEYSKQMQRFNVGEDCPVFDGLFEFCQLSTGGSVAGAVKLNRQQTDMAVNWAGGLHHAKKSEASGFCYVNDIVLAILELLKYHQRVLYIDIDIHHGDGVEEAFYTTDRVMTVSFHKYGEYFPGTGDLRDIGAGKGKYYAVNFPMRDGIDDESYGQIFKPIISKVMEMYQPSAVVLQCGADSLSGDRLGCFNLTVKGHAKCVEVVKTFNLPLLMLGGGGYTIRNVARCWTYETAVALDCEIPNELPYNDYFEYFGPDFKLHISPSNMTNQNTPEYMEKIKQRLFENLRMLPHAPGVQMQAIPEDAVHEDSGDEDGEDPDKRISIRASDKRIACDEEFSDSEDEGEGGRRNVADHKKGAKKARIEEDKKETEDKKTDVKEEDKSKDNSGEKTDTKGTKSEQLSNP
T1 sequence (Q9BY41 whole entry, looked up): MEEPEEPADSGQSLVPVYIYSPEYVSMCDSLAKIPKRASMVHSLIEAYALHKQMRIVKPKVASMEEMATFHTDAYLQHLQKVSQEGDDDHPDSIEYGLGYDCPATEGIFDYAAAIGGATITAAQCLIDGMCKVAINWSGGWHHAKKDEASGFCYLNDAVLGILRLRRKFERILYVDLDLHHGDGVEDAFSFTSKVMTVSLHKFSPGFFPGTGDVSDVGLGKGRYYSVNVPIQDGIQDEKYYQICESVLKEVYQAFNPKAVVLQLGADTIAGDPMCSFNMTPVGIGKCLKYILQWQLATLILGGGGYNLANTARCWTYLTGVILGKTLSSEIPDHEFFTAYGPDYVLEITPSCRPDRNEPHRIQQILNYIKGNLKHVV
Histone deacetylase 2, sequence (Q92769 whole entry): as the sequence (Q92769 whole entry, looked up) above

SMILES: Cc1cc(C)cc(C(=O)N(CC(=O)NCc2ccccc2)Cc2ccc(C(=O)Nc3cc(-c4ccccc4)ccc3N)cc2)c1
inhibition (Histone deacetylase 2): 34%
Activity (A2780): inactive
Ratio IC50 [1]: 5.26
Activity (CAL-27 [2]): 6.27%
Activity [3]: 7.45%
Activity (CAL-27 [4]): 9.47%
IC50 [5]: 12 µM
inhibition [6]: Active
inhibition [7]: Active

CI [11]: 0.11
CI [12]: 0.56
CI [13]: 0.33
CI [14]: 0.91
CI [15]: 0.02
CI [16]: < 0.2
CI [17]: < 0.2
CI [18]: 0.23
CI [19]: 0.04
SMILES: CN(C)c1ccc(C(=O)N(CC(=O)NCc2ccccc2)Cc2ccc(C(=O)Nc3ccccc3N)cc2)cc1
Ratio IC50 (CAL-27 [8]): 1.7
Activity (CAL-27 [9]): 9.42%
Activity [10]: 6.15%

inhibition [27]: Active
inhibition [28]: Active
inhibition [29]: Active
SMILES: Cc1cc(C)cc(C(=O)N(CCCCCC(=O)Nc2cc(-c3ccccc3)ccc2N)CC(=O)NCc2ccccc2)c1
IC50 [20]: 1.86 µM
Ratio IC50 [21]: 5.26
CI [22]: 0.09
CI [23]: 0.76
CI [24]: < 0.2
CI [25]: < 0.2
CI [26]: < 0.2
